One block for each compound: values may come before it.
Assays:
[1] = target: T1, EGFR L858R/T790M/C797S (Homo sapiens, UniProt P00533, C797S/L858R/T790M); experiment: EGFR degradation HTRF assay in BaF3-LTC cells; type: cell-based; conditions: BaF3-LTC (L858R/T790M/C797S), maximum percentage of inhibition (degradation); read-out: BaF3-LTC Dmax (%)
T1 construct: expressed in transfected cells; host or cells: BaF3-LTC
Procedure: (§1) BaF3-LTC(L858R/T790M/C797S) cells and BaF3 LC(L858R/C797S) cells are treated with compounds diluted in 0.2% DMSO cell culture medium and incubate for 16 h, 37° C., 5% CO2. the final concentration of compounds in all assay is start with 10 uM, 5-fold dilution, total 8 doses were included.
(§2) After 16 h treatment, add HTRF lysis buffer to each well; seal the plate and incubate 1 hour at room temperature on a plate shaker; Once the cells are lysed, 16 μL of cell lysate are transferred to a PE 384-well HTRF detection plate; 4 μL of pre-mixed HTRF antibodies are added to each well; Cover the plate with a plate sealer, spin 1000 rpm for 1 min, Incubate overnight at room temperature; Read on BMG PheraStar with HTRF protocol (337 nm-665 nm-620 nm).
(§3) The inhibition (degradation) percentage of the compound was calculated by the following equation: Inhibition percentage of Compound=100−100×(Signal−low control)/(High control−low control), wherein signal=each test compound group
(§4) High control=Cell group with added DMSO and without compound, indicating microplate readings without EGFR degradation;
(§5) Dmax is the maximum percentage of inhibition (degradation).
(§6) The IC50 (DC50) value of a compound can be obtained by fitting the following equation
(§7) Y=Bottom+(TOP−Bottom)/(1+((IC50/X)^hillslope))
(§8) Wherein, X and Y are known values, and IC50, Hillslope, Top and Bottom are the parameters obtained by fitting with software. Y is the inhibition percentage (calculated from the equation), X is the concentration of the compound; IC50 is the concentration of the compound when the 50% inhibition is reached. The smaller the IC50 value is, the stronger the inhibitory ability of the compound is. Vice versa, the higher the IC50 value is, the weaker the inhibitory ability of the compound is; Hillslope represents the slope of the fitted curve, generally around 1*; Bottom represents the minimum value of the curve obtained by data fitting, which is generally 0%±20%; Top represents the maximum value of the curve obtained by data fitting, which is generally 100%±20%. The experimental data were fitted by calculating and analyzing with Dotmatics data analysis software.

[2] = target: T2, EGFR L858R/C797S (Homo sapiens, UniProt P00533, C797S/L858R); experiment: EGFR degradation HTRF assay in BaF3 LC cells; type: cell-based; conditions: BaF3 LC (L858R/C797S), maximum percentage of inhibition (degradation); read-out: BaF3 LC Dmax (%)
T2 construct: expressed in transfected cells; host or cells: BaF3 LC
Procedure: as §1, §2, §3, §4, §5, §6, §7, §8

T2 sequence (P00533 25-1210 C797S/L858R): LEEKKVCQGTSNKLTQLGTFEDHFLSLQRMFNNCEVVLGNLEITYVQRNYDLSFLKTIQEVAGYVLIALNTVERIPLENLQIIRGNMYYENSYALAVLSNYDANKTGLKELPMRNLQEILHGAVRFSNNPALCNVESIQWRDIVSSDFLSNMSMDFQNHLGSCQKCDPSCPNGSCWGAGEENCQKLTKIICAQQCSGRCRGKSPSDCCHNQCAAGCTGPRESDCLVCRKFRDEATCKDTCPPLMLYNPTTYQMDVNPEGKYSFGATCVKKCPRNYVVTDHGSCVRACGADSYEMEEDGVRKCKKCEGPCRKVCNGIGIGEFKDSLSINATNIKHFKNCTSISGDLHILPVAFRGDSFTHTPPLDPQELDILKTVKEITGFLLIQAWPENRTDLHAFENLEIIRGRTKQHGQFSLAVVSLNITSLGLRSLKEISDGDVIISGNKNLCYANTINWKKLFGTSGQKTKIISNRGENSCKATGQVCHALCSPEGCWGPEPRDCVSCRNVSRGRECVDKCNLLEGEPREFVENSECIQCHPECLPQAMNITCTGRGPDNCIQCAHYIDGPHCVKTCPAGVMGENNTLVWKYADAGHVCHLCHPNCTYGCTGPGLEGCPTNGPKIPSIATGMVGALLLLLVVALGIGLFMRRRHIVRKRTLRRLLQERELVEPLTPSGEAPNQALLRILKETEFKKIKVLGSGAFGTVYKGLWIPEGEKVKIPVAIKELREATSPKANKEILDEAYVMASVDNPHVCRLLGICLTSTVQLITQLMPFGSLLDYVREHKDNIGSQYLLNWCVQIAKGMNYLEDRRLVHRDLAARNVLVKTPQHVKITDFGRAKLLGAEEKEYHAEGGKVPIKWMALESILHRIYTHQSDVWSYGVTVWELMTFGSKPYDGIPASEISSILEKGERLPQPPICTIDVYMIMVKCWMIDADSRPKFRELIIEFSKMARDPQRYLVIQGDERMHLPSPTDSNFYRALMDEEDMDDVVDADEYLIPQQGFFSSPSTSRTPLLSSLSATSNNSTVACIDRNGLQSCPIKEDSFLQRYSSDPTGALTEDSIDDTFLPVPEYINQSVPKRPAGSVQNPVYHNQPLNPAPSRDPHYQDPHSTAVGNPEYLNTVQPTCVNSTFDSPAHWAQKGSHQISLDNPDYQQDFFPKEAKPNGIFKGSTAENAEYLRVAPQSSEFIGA
T1 sequence (P00533 25-1210 T790M/C797S/L858R): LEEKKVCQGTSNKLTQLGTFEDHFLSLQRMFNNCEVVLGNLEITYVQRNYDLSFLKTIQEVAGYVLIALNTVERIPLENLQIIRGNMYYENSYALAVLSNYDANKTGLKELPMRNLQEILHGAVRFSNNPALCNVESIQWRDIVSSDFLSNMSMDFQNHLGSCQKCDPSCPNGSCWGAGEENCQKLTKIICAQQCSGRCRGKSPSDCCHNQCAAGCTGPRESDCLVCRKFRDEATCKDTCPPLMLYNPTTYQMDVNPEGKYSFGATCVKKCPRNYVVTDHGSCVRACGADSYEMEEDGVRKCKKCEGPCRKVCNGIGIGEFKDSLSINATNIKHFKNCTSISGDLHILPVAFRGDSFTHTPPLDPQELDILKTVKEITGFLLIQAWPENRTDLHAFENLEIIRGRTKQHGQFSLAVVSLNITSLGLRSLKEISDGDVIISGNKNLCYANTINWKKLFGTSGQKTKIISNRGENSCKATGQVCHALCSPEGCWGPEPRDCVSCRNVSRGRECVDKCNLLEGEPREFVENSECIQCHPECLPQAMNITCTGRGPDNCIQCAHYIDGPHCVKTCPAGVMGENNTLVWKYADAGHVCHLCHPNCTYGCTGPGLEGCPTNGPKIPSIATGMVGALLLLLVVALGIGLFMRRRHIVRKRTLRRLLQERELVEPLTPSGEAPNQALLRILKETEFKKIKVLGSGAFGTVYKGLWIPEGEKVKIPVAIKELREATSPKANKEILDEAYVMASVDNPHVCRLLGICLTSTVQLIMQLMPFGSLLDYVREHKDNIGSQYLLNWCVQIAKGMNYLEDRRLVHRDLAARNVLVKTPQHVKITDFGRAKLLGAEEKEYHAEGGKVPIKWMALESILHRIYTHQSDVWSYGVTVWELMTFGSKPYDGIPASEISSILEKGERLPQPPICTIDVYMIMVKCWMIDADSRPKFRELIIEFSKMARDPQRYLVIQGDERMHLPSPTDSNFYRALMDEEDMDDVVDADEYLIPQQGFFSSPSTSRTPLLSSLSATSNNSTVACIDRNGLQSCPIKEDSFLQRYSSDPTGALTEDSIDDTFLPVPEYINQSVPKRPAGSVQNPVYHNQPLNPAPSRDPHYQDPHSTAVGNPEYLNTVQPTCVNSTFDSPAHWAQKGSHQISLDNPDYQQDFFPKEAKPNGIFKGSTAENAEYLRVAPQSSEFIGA

Structure (SMILES): CCOc1cc(N2CCC(N3CCN(CCc4cc(F)c([C@H]5CCC(=O)NC5=O)c(F)c4)CC3)CC2)c(CC)cc1Nc1ncc(Br)c(Nc2ccc3nc(CC)ncc3c2P(C)(C)=O)n1 [Example 460, (R)-3-(4-(2-(4-(1-(4-((5-bromo-4-((5-(dimethylphosphoryl)-2-ethylquinazolin-6-yl)amino)pyrimidin-2-yl)amino)-5-ethoxy-2-ethylphenyl)piperidin-4-yl)piperazin-1-yl)ethyl)-2,6-difluorophenyl)piperidine-2,6-dione]
- Dmax [1]: 82.5%
- Dmax [2]: 88.2%

Structure (SMILES): CCOc1cc(N2CCC(N3CCN(CCc4cc(F)cc5c4n(C)c(=O)n5C4CCC(=O)NC4=O)CC3)CC2)c(CC)cc1Nc1ncc(Br)c(Nc2ccc3nc(CC)ccc3c2P(C)(C)=O)n1 (stereo not shown) [Example 462, 3-(4-(2-(4-(1-(4-((5-bromo-4-((5-(dimethylphosphoryl)-2-ethylquinolin-6-yl)amino)pyrimidin-2-yl)amino)-5-ethoxy-2-ethylphenyl)piperidin-4-yl)piperazin-1-yl)ethyl)-6-fluoro-3-methyl-2-oxo-2,3-dihydro-1H-benzo[d]imidazol-1-yl)piperidine-2,6-dione]
- Dmax [1]: 84.5%
- Dmax [2]: 89.9%

Structure (SMILES): CCOc1cc(N2CCC(N3CCN(CCc4cccc5c4oc(=O)n5C4CCC(=O)NC4=O)CC3)CC2)c(CC)cc1Nc1ncc(Br)c(Nc2ccc3nc(CC)ccc3c2P(C)(C)=O)n1 (stereo not shown) [Example 473, 3-(7-(2-(4-(1-(4-((5-bromo-4-((5-(dimethylphosphoryl)-2-ethylquinolin-6-yl)amino)pyrimidin-2-yl)amino)-5-ethoxy-2-ethylphenyl)piperidin-4-yl)piperazin-1-yl)ethyl)-2-oxobenzo[d]oxazol-3(2H)-yl)piperidine-2,6-dione]
- Dmax [1]: 94.6%
- Dmax [2]: 85.5%

Structure (SMILES): CCc1cc(Nc2ncc(Br)c(Nc3ccc4nc(C)ncc4c3P(C)(C)=O)n2)c(OC)cc1N1CCC(N2CCN(C(=O)[C@H]3CN(c4cc(F)c([C@H]5CCC(=O)NC5=O)c(F)c4)CC3(C)C)CC2)CC1 [Example 740, (R)-3-(4-((R)-4-(4-(1-(4-((5-bromo-4-((5-(dimethylphosphoryl)-2-methylquinazolin-6-yl)amino)pyrimidin-2-yl)amino)-2-ethyl-5-methoxyphenyl)piperidin-4-yl)piperazine-1-carbonyl)-3,3-dimethylpyrrolidin-1-yl)-2,6-difluorophenyl)piperidine-2,6-dione]
- Dmax [1]: 97.2%

Structure (SMILES): CCc1cc(Nc2ncc(Br)c(Nc3ccc4nc(C5CC5)ccc4c3P(C)(C)=O)n2)c(OC)cc1N1CCC(N2CCN(CCc3cc(F)c([C@H]4CCC(=O)NC4=O)c(F)c3)CC2)CC1 [Example 741, (R)-3-(4-(2-(4-(1-(4-((5-bromo-4-((2-cyclopropyl-5-(dimethylphosphoryl)quinolin-6-yl)amino)pyrimidin-2-yl)amino)-2-ethyl-5-methoxyphenyl)piperidin-4-yl)piperazin-1-yl)ethyl)-2,6-difluorophenyl)piperidine-2,6-dione]
- Dmax [1]: 96.6%

Structure (SMILES): CCOc1cc(N2CCC(N3CCN(CCc4cc(F)c(F)c5c4n(CC)c(=O)n5C4CCC(=O)NC4=O)CC3)CC2)c(CC)cc1Nc1ncc(Br)c(Nc2ccc3nc(CC)ccc3c2P(C)(C)=O)n1 (stereo not shown) [Example 742, 3-(4-(2-(4-(1-(4-((5-bromo-4-((5-(dimethylphosphoryl)-2-ethylquinolin-6-yl)amino)pyrimidin-2-yl)amino)-5-ethoxy-2-ethylphenyl)piperidin-4-yl)piperazin-1-yl)ethyl)-3-ethyl-6,7-difluoro-2-oxo-2,3-dihydro-1H-benzo[d]imidazol-1-yl)piperidine-2,6-dione]
- Dmax [1]: 78.1%

Structure (SMILES): CCc1ccc2c(P(C)(C)=O)c(Nc3nc(Nc4cc(CC)c(N5CCC(N6CCN(CCc7cc(F)c([C@H]8CCC(=O)NC8=O)c(F)c7)CC6)CC5)cc4OC)ncc3Cl)ccc2n1 [Example 744, (R)-3-(4-(2-(4-(1-(4-((5-chloro-4-((5-(dimethylphosphoryl)-2-ethylquinolin-6-yl)amino)pyrimidin-2-yl)amino)-2-ethyl-5-methoxyphenyl)piperidin-4-yl)piperazin-1-yl)ethyl)-2,6-difluorophenyl)piperidine-2,6-dione]
- Dmax [1]: 92.3%

Structure (SMILES): CCc1ccc2c(P(C)(C)=O)c(Nc3nc(Nc4cc(CC)c(N5CCC(C6CCN(CCc7cc(F)c([C@H]8CCC(=O)NC8=O)c(F)c7)CC6)CC5)cc4OC)ncc3Br)ccc2n1 [Example 745, (R)-3-(4-(2-(1′-(4-((5-bromo-4-((5-(dimethylphosphoryl)-2-ethylquinolin-6-yl)amino)pyrimidin-2-yl)amino)-2-ethyl-5-methoxyphenyl)-[4,4′-bipiperidin]-1-yl)ethyl)-2,6-difluorophenyl)piperidine-2,6-dione]
- Dmax [1]: 88.7%

Results, then the compound that gave them:

- Dmax [1]: 95.5%
Structure (SMILES): CCOc1cc(N2CCC(N3CCN(C(=O)[C@H]4CN(c5cc(F)c([C@H]6CCC(=O)NC6=O)c(F)c5)CC4(C)C)CC3)CC2)c(CC)cc1Nc1ncc(Br)c(Nc2cc(F)c3nc(CC)ccc3c2P(C)(C)=O)n1 [Example 746, (R)-3-(4-((R)-4-(4-(1-(4-((5-bromo-4-((5-(dimethylphosphoryl)-2-ethyl-8-fluoroquinolin-6-yl)amino)pyrimidin-2-yl)amino)-5-ethoxy-2-ethylphenyl)piperidin-4-yl)piperazine-1-carbonyl)-3,3-dimethylpyrrolidin-1-yl)-2,6-difluorophenyl)piperidine-2,6-dione]

- Dmax [1]: 96.2%
Structure (SMILES): CCOc1cc(N2CCC(N3CCN(C(=O)[C@H]4CN(c5cc(F)c([C@H]6CCC(=O)NC6=O)c(F)c5)CC4(C)C)CC3)CC2)c(CC)cc1Nc1ncc(Br)c(Nc2ccc3nc(C)ccc3c2P(C)(C)=O)n1 [Example 747, (R)-3-(4-((R)-4-(4-(1-(4-((5-bromo-4-((5-(dimethylphosphoryl)-2-methylquinolin-6-yl)amino)pyrimidin-2-yl)amino)-5-ethoxy-2-ethylphenyl)piperidin-4-yl)piperazine-1-carbonyl)-3,3-dimethylpyrrolidin-1-yl)-2,6-difluorophenyl)piperidine-2,6-dione]

- Dmax [1]: 93.6%
Structure (SMILES): CCc1ncc2c(P(C)(C)=O)c(Nc3nc(Nc4cc(C)c(N5CCC(N6CCN(CCc7cc(F)c([C@H]8CCC(=O)NC8=O)c(F)c7)CC6)CC5)cc4OC)ncc3Br)ccc2n1 [Example 748, (R)-3-(4-(2-(4-(1-(4-((5-bromo-4-((5-(dimethylphosphoryl)-2-ethylquinazolin-6-yl)amino)pyrimidin-2-yl)amino)-5-methoxy-2-methylphenyl)piperidin-4-yl)piperazin-1-yl)ethyl)-2,6-difluorophenyl)piperidine-2,6-dione]

- Dmax [1]: 35.9%
Structure (SMILES): CCOc1cc(N2CCC(N3CCN(CCc4cc(F)c([C@H]5CCC(=O)NC5=O)c(F)c4)CC3)CC2)c(CC)cc1Nc1nccc(Nc2ccc3nc(CC)ncc3c2P(C)(C)=O)n1 [Example 749, (R)-3-(4-(2-(4-(1-(4-((4-((5-(dimethylphosphoryl)-2-ethylquinazolin-6-yl)amino)pyrimidin-2-yl)amino)-5-ethoxy-2-ethylphenyl)piperidin-4-yl)piperazin-1-yl)ethyl)-2,6-difluorophenyl)piperidine-2,6-dione]

- Dmax [1]: 94.6%
Structure (SMILES): CCc1cc(Nc2ncc(Br)c(Nc3ccc4nccnc4c3P(C)(C)=O)n2)c(OC)cc1N1CCC(N2CCN(CCc3cc(F)c([C@H]4CCC(=O)NC4=O)c(F)c3)CC2)CC1 [Example 751, (R)-3-(4-(2-(4-(1-(4-((5-bromo-4-((5-(dimethylphosphoryl)quinoxalin-6-yl)amino)pyrimidin-2-yl)amino)-2-ethyl-5-methoxyphenyl)piperidin-4-yl)piperazin-1-yl)ethyl)-2,6-difluorophenyl)piperidine-2,6-dione]
